Patent publication US20260284020A1, “LATS KINASE INHIBITOR TO TREAT RETINAL DEGENERATION” (Children's Hospital Los Angeles, priority 2023, published 2026)
“Also recorded” adds a separate entry of the source.

Tested on: RPE injury by laser photocoagulation in Dutch-belted rabbits
Assay: In vivo laser injury model: retinal immunohistochemistry, quantification of cell proliferation
Set-up: species or system rabbit
Settings: for percentage of Ki67+ cells in the choroid vs control (in words): 1- or 4-week time points
Protocol: Following the laser procedure, the eyes were anesthetized once more with topical proparacaine. Povidone-iodine was applied to the conjunctiva or sclera using sterile Q-tips. Either 50 μL of 15 mM LATS kinase inhibitor (LKI), or vehicle control, was injected per eye using 1 mL Luer-lock syringe with a 27G 1½ inch needle. The second generation LKI, TDI-011536, was used as a micro-suspension formulation prepared in phosphate buffer solution (PBS; Sigma) supplemented with 0.5% carboxymethyl cellulose (Sigma) and 0.5% Kolliphor P 188 Bio (BASF Pharma). Intravitreal injections containing LKI were administered in the right eye and control injections were administered in the left eye. Injections were administered 1-2 mm posterior to the superotemporal or superonasal limbus and delivery of each compound was confirmed on indirect ophthalmoscopy.
Eyes used for immunofluorescence staining were processed according to a previously described protocol. Briefly, eyes were immediately placed in 50 mL 4% PFA in PBS on ice. After 15 minutes, eyes were removed from 4% PFA in PBS and the cornea and iris were removed under a dissecting microscope. With the cornea and iris removed, eyes were placed back in 50 mL 4% PFA and agitated overnight at 4° C. The following morning, the lens was removed. Eyes were then placed in 50 mL of 30% sucrose in PBS at 4° C. for cryoprotection. Once cryoprotection was complete, eyes were removed from 30% sucrose solution and embedded in optimal cutting temperature (OCT) compound.
Following embedding, eyes were mounted on a Leica cryostat (Leica Microsystems, Wetzlar, Germany) for sectioning. All retinal sections were 14 μm thickness and attached to a glass slide. A list of materials used can be found in Table 1.
To quantify RPE proliferation at the site of laser injury in vivo, regions 400 μm in width were centered on the outer nuclear layer (ONL) defect. Laser spots with ONL defects <30 μm in diameter, retinal detachments >225 μm, or an adjacent laser spot <200 μm away from the center of the ONL defect were excluded from analysis. Additionally, laser spots with significant tissue folding or tears were excluded. RPE cross-sectional area in μm^2 was obtained using the Wand Tool in QuPath using the RPE65 channel. RPE proliferation was quantified as the number of Ki67+ cells divided by DAPI+ cells within the RPE layer, expressed as a percentage. Choroidal proliferation was quantified as the number of Ki67+ cells divided by DAPI+ cells in the choroid.
To evaluate the effect of LKI on Müller glia at the site of injury, glial cell proliferation was quantified as the number of Ki67/Sox2 doubly positive cells divided by total number of Sox2/DAPI doubly positive cells within the 400 μm laser region, expressed as a percentage.
To evaluate the effect of LKI in undamaged retina, regions 400 μm in width in the peripheral retina were analyzed. The percentages of Ki67+ cells in the RPE layer, Ki67/Sox2 doubly positive cells, and Ki67+ cells in the choroid in unaffected regions were calculated in an identical fashion.
To further evaluate the effect of Lats kinase inhibition on the RPE injury response in vivo, eyes injected with LKI (n=9 eyes) or vehicle (n=8 eyes) from three independent experiments were cryosectioned and immunolabeled with Ki-67, a marker of cell proliferation. Additionally, sections were labeled with RPE65 to visualize RPE, Sox2 to visualize Müller glia, and Dapi to label all cell nuclei. […] RPE cross-sectional area was 14129±5605 μm^2 in LKI laser spots and 6221±914.2 μm^2 in control laser spots (P<0.0001). RPE maximal thickness was 56.36±19.23 μm in LKI laser spots and 23.08±8.46 μm in control laser spots (P<0.0001). Within the RPE layer, there was a significant increase in Ki67+ cells with LKI compared to the control (FIG. 5A, 5D). The percentage of Ki67+ RPE was 8.75±4.22% in LKI laser spots and 1.55±3.21% in control laser spots (P<0.001). […]

[1] = laser spots, 1 week, intravitreal 50 μL of 15 mM, mean±SD
[2] = laser spots, 1 week, listed as LKI

## O=C(/N=c1\scc(CO)n1Cc1ccccc1)c1c[nH]c2ncccc12 [TDI-011536]
1 week, listed as LKI
  Ki67+ (Sox2/Ki67 doubly positive) Müller glia in undamaged regions (outside of laser spots): no Sox2/Ki67++ cells
  Ki67+ cells within the RPE layer in undamaged regions (outside of laser spots): no Ki67+ RPE cells
4 weeks, listed as LKI
  Ki67+ (Sox2/Ki67 doubly positive) Müller glia in undamaged regions: no Sox2/Ki67++ cells
  Ki67+ cells within the RPE layer in undamaged regions: no Ki67+ RPE cells
Laser regions
  percentage of Ki67+ cells in the choroid vs control (in words): no significant difference
[1]
  RPE cross-sectional area: 14129±5605 μm^2
  RPE maximal thickness: 56.36±19.23 μm
[2]
  Ki67+ Sox2+ cells (Müller glia) compared to control (in words): Sox2+ and Ki67+Müller glia were observed; also recorded: significantly in increased
  RPE cross-sectional area compared to control (in words): increase in underlying RPE cross-sectional area; also recorded: significantly increased
  percentage of Ki67+ RPE cells compared to control (in words): increase; also recorded: significantly increased
Laser spots, 1 week, mean±SD
  Ki67+ cells within the choroid: 6.66±5.37%
  percentage of Ki67+ RPE (Ki67+ cells within the RPE layer): 8.75±4.22%
  percentage of Ki67+ Sox2+ cells (Müller glia): 11.00±5.11%
Laser spots, 4 weeks
  Ki67+ Sox2+ cells (Müller glia) compared to control (in words): no significant difference
  RPE maximal thickness compared to control (in words): increase in underlying RPE cross-sectional area and maximal thickness
  percentage of Ki67+ RPE cells compared to control (in words): no significant difference
Laser spots, 4 weeks, intravitreal 50 μL of 15 mM, mean±SD
  RPE cross-sectional area: 15800 ± 6530 µm²
Laser spots, 4 weeks, listed as LKI
  RPE cross-sectional area compared to control (in words): increase in RPE cross-sectional area; also recorded: significantly increased
Laser spots, 4 weeks, mean±SD
  Ki67+ cells within the choroid: 0.39±0.71%
  percentage of Ki67+ RPE (Ki67+ cells within the RPE layer): 0.29±0.90%
  percentage of Ki67+ Sox2+ cells (Müller glia): 1.23±3.25%
rabbits, intravitreal 50 μL of 15 mM microsuspension
  overall effect of intravitreal LKI microsuspension in the laser injury model (in words): extensive RPE proliferation and wound healing without measurable effects on off-target cell types or uninjured regions
Undamaged regions
  percentage of Ki67+ cells in the choroid vs control (in words): no significant difference
